In patent US11970512B2, “Amphotericin B derivatives with improved therapeutic index” (The Board of Trustees of the University of Illinois, priority 2013, dated 2024):
Values after ≈ are worked out from the molar mass of the structure shown. Like-named read-outs stand apart in the source and are kept apart here.

What was measured:
Saccharomyces cerevisiae = experiment: Broth microdilution assay (MIC) against Saccharomyces cerevisiae; format: cell-based; conditions: read-out: MIC (μM) S.cerevisiae
Description: (§1) With efficient access to this novel AmB chemotype, ureas 2-4 were compared to AmB and a range of previously reported AmB derivatives in an in vitro antifungal and human cell toxicity screen. Yeast toxicity was measured with broth microdilution assays (MIC) against Saccharomyces cerevisiae. Human cell toxicity was studied by determining the amount of compound required to cause 90% hemolysis of human erythrocytes (EH90). […] Methyl esterification (AmBME) retains antifungal activity at 0.25 μM against S. cerevisiae, while decreasing hemolysis concentration to one third that seen with AmB. […] Hemolysis activity remained similar to AmBME and C41MeAmB. Bis-amino alkylated amide derivative AmBNR2 was previously shown to moderately improve the therapeutic index.^[19]
(§2) Each derivative proposed herein is tested for biological activity against both yeast and human cells to determine its therapeutic index. A broth microdilution experiment determines the MIC (minimum inhibitory concentration) of each derivative against S. cerevisiae and the clinically relevant C. albicans, thereby establishing the antifungal activity of each novel derivative. To test for toxicity against human cells, each compound is exposed to a hemolysis assay against red blood cells which determines the concentration required to cause 90% lysis of human red blood cells (EH90). Additionally, each compound is exposed to human primary renal tubule cells to determine the toxicity of each compound against kidney cells. These assays when compared against the known values of AmB against the same cell lines determine the improvement in therapeutic index of each compound.

Candida albicans = experiment: Broth microdilution assay (MIC) against C. albicans; format: cell-based; conditions: read-out: MIC (μM) against C. albicans
Description: Urea derivatives 2-4 maintain potent antifungal activity ranging from 0.125 μM to 3 μM against S. cerevisiae. […] AmBCU required 324 μM to cause 90% hemolysis in red blood cells, more than 30× required by AmB. Encouraged by this initial therapeutic index screen the urea series was further tested against the clinically relevant fungal cell line Candida albicans. C. albicans is the most common human fungal infection. AmB inhibits yeast grown of C. albicans at 0.25 μM. Similar to the trend seen with S. cerevisiae, the potency of urea derivatives […] increased with increasing amount of cationic character. AmBAU, AmBMU, and AmBCU require 0.25, 0.5, and 1 μM respectively (Table 2).
as §2

[1] = Acute toxicity, single intravenous administration to healthy mice, lethality; format: in vivo
Description: FIG. 40 is a graph depicting lethality in healthy mice of single intravenous administration in the doses indicated of AmB, AmBMU, or AmBAU.
In a separate set of experiments, acute toxicity was evaluated by single intravenous administration of 1, 2, 4, 8, 16, 32, or 64 mg/kg AmB or its derivatives to healthy mice, followed by monitoring for lethality. […] AmBAU was drastically less toxic with >50% lethality not being reached until the 64 mg/kg dosage group.

human erythrocytes = format: cell-based; conditions: for EH90 as multiple of that observed with AmB: human
Description: as §1, §2

C. albicans = experiment: Mouse model of disseminated candidiasis, kidney fungal burden; format: in vivo; conditions: neutropenic mice; for reduction of kidney fungal burden relative to AmB: single intraperitoneal 16 mg/kg dose, 24 hours post inoculation; for reducing the fungal burden present in the kidneys, compared with AmB (in words): single intraperitoneal dose, all three tested doses (1, 4, and 16 mg/kg)
Description: FIG. 39 is a group of three graphs depicting kidney fungal load (colony forming units, cfu) in neutropenic mice inoculated intravenously with C. albicans and then treated two hours later with a single intraperitoneal dose of vehicle control, AmB, AmBMU, or AmBAU. FIG. 39A, 1 mg/kg AmB, AmBMU, or AmBAU. FIG. 39B, 4 mg/kg AmB, AmBMU, or AmBAU. FIG. 39C, 16 mg/kg AmB, AmBMU, or AmBAU.
The antifungal efficacies of AmBMU and AmBAU were tested in a mouse model of disseminated candidiasis. In this experiment neutropenic mice were infected with C. albicans via the tail vein, and then 2 hours post infection the mice were treated with a single intraperitoneal injection of AmB, AmBMU, or AmBAU. Then 2, 6, 12, and 24 hours post infection the mice were sacrificed, and the fungal burden present in their kidneys was quantified. […] The differences were most pronounced at the 16 mg/kg dose at 24 hours post inoculation. Relative to AmB, AmBMU reduced the fungal burden by 1.2 log units (p≤0.001), and AmBAU reduced the fungal burden by nearly 3 log units (p≤0.0001).

yeast = conditions: in vitro studies; cited from earlier work
[2] = Saccharomyces cerevisiae, broth microdilution
[3] = Candida albicans, broth microdilution

C[C@@H]1[C@H](O)[C@@H](C)/C=C/C=C/C=C/C=C/C=C/C=C/C=C/[C@H](O[C@@H]2O[C@H](C)[C@@H](O)[C@H](N)[C@@H]2O)C[C@@H]2O[C@](O)(C[C@@H](O)C[C@@H](O)[C@H](O)CC[C@@H](O)C[C@@H](O)CC(=O)O[C@H]1C)C[C@H](O)[C@H]2C(=O)O [AmB, amphotericin B]
MIC (Saccharomyces cerevisiae; broth microdilution): 0.5 µM (≈ 0.462 µg/mL)
MIC (Candida albicans; broth microdilution): 0.25 µM (≈ 0.231 µg/mL)
lethality ([1]; single intravenous 4 mg/kg): All mice in the 4 mg/kg AmB dosage group died within seconds

CC1OC(O[C@H]2/C=C/C=C/C=C/C=C/C=C/C=C/C=C/[C@H](C)[C@@H](O)[C@@H](C)[C@H](C)OC(=O)C[C@H](O)C[C@H](O)CC[C@@H](O)[C@H](O)C[C@H](O)C[C@]3(O)C[C@H](O)[C@@H](NC(=O)NCCN)C(C2)O3)C(O)C(N)C1O (stereo partly drawn) [AmBAU]
MIC (Saccharomyces cerevisiae; Saccharomyces cerevisiae): 0.125 µM (≈ 0.123 µg/mL)
cell-killing activity / toxicity towards human red blood cells (in words) (human erythrocytes): drastically decreased toxicity towards red blood cells
EH90 (μM) red blood cells (human erythrocytes; amount of compound required to cause 90% hemolysis of human erythrocytes): >500 µM
MIC (Candida albicans; Candida albicans): 0.25 µM (≈ 0.245 µg/mL)
reduction of kidney fungal burden relative to AmB (C. albicans): ~3 log units
reducing the fungal burden present in the kidneys, compared with AmB (in words) (C. albicans): substantially more effective than AmB
dosage group at which >50% lethality was reached ([1]; single intravenous administration): 64 mg/kg

CC1OC(O[C@H]2/C=C/C=C/C=C/C=C/C=C/C=C/C=C/[C@H](C)[C@@H](O)[C@@H](C)[C@H](C)OC(=O)C[C@H](O)C[C@H](O)CC[C@@H](O)[C@H](O)C[C@H](O)C[C@]3(O)C[C@H](O)[C@@H](NC(=O)NCCC(=O)O)C(C2)O3)C(O)C(N)C1O (stereo partly drawn) [AmBCU]
MIC (Saccharomyces cerevisiae; [2]): 3 µM (≈ 3.03 µg/mL)
cell-killing activity / toxicity towards human red blood cells (in words) (human erythrocytes): drastically decreased toxicity towards red blood cells
EH90 as multiple of that observed with AmB (human erythrocytes): more than 30 ×
MIC (Candida albicans; [3]): 1 µM (≈ 1.01 µg/mL)

CNC(=O)[C@H]1[C@@H]2C[C@@H](O[C@@H]3O[C@H](C)[C@@H](O)[C@H](N)[C@@H]3O)/C=C/C=C/C=C/C=C/C=C/C=C/C=C/[C@H](C)[C@@H](O)[C@@H](C)[C@H](C)OC(=O)C[C@H](O)C[C@H](O)CC[C@@H](O)[C@H](O)C[C@H](O)C[C@](O)(C[C@@H]1O)O2 [AmBMA, reference compound]
MIC (Saccharomyces cerevisiae; broth microdilution): 0.25 µM (≈ 0.234 µg/mL)
EH90 (μM) red blood cells (human erythrocytes): 15.32 ± 3.39 µM

COC(=O)[C@H]1[C@@H]2C[C@@H](O[C@@H]3O[C@H](C)[C@@H](O)[C@H](N)[C@@H]3O)/C=C/C=C/C=C/C=C/C=C/C=C/C=C/[C@H](C)[C@@H](O)[C@@H](C)[C@H](C)OC(=O)C[C@H](O)C[C@H](O)CC[C@@H](O)[C@H](O)C[C@H](O)C[C@](O)(C[C@@H]1O)O2 [AmBME, reference compound]
MIC (Saccharomyces cerevisiae; broth microdilution): 0.25 µM (≈ 0.235 µg/mL)
EH90 (μM) red blood cells (human erythrocytes): 30.67 ± 5.38 µM
hemolysis concentration relative to AmB (human erythrocytes): one third

CNC(=O)N[C@H]1C2C[C@@H](OC3OC(C)C(O)C(N)C3O)/C=C/C=C/C=C/C=C/C=C/C=C/C=C/[C@H](C)[C@@H](O)[C@@H](C)[C@H](C)OC(=O)C[C@H](O)C[C@H](O)CC[C@@H](O)[C@H](O)C[C@H](O)C[C@](O)(C[C@@H]1O)O2 (stereo partly drawn) [AmBMU]
MIC (Saccharomyces cerevisiae; [2]): 0.25 µM (≈ 0.238 µg/mL)
cell-killing activity / toxicity towards human red blood cells (in words) (human erythrocytes): drastically decreased toxicity towards red blood cells
EH90 as multiple of that observed with AmB (human erythrocytes): greater than 45 ×
MIC (Candida albicans; [3]): 0.5 µM (≈ 0.476 µg/mL)
reduction of kidney fungal burden relative to AmB (C. albicans): 1.2 log units
reducing the fungal burden present in the kidneys, compared with AmB (in words) (C. albicans): substantially more effective than AmB
lethality ([1]; single intravenous 64 mg/kg): survived with no observable toxicity

CC1C=CC=CC=CC=CC=CC=CC=CC(OC2CC(N)C(O)C(C)O2)CC2OC(O)(CC(O)CC(O)C(O)CCC(O)CC(O)CC(=O)OC(C)C(C)C1O)CC(O)C2C(=O)O (stereo not drawn) [C2′deOAmB]
toxicity to yeast (yeast): toxic to yeast
